Source: US5659012A, “Peptide which binds SH2 domains of protein tyrosine phosphatase SH-PTP1” (Whitehead Institute for Biomedical Research, priority 1995, dated 1997)

Legend:
[1] = system: 32D cells expressing the EPO-R mutant Y429,431F; test: Proliferation assay (3H-Thymidine incorporation), EPO-dependent proliferation; format: cell-based
Protocol: (§1) FIG. 2 is a graphic illustration of EPO-dependent proliferation of 32D cells expressing the wt EPO-R and the EPO-R mutant Y429, 431F. […] Each data point represents the mean of triplicate determinations±standard deviation.
(§2) To assess the role of SH-PTP1 in regulating proliferative signals generated by the EPO-R, the proliferation of 32D cells expressing wt EPO-R or EPO-R Y429,431F was measured. […] When grown in EPO, the half-maximal proliferation of pools of 32D cells expressing the wt EPO-R required 0.25 units EPO/ml and maximal proliferation required about 1 units/ml (FIG. 2). […] Pools of 32D cells expressing the mutant EPO-R Y429,431F achieved half-maximal proliferation in as little as 0.025 units EPO/ml, reaching a maximum rate at 0.1 units/ml (FIG. 2). At the highest EPO concentrations employed, the rate of proliferation of cell pools expressing the wt EPO-R or the EPO-R mutant Y429,431F was the same.
(§3) Proliferation assays were performed in 96 well plates with 200 μl/well. 5×10^4 32D cells/ml were seeded in the presence of indicated amounts of cytokines (EPO O--5 units/ml; IL3 0-100 units/ml). After 48 hours, 1 μCi 3H-Thymidine (DuPont NEN)/well was added for another 3 hours. The labeled cells were then harvested by a 96 well plate harvester (Scantron Instruments Inc.) and the amount of radioactively labeled DNA was quantitated in a scintillation counter.

[2] = system: 32D cells expressing the wt EPO-R; test: as above; format: cell-based; details: pools of 32D cells expressing wt EPO-R
Protocol: as §1, §2, §3

[3] = pools of 32D cells expressing mutant EPO-R Y429,431F

For Erythropoietin [EPO], the “amount of EPO allowing proliferation relative to the normal amount” value ([1]; mutant EPO-R unable to bind SH-PTP1 versus wt EPO-R) was “one-fifth to one-tenth”, the “EPO giving half-maximal proliferation” value [1, 3] was 0.025 units EPO/ml and the “EPO giving maximum rate of proliferation” value [1, 3] was 0.1 units/ml. The “EPO required for maximal proliferation” value [2] was “about 1 units/ml” and the “EPO required for half-maximal proliferation” value ([2]; 48 h + 3 h 3H-Thymidine) was 0.25 units EPO/ml.
